The source made the active and inactive calls.
What was measured:
[1] = target: T1, Short transient receptor potential channel 4 (Mus musculus, UniProt Q9QUQ5); experiment: calcium entry via TRPC4 opening agents – cell-based, HEK293 TRPC4/mu-opioid, Fluo-4 calcium, dose response (AID 434937); type: functional
T1 sequence (Q9QUQ5 whole entry): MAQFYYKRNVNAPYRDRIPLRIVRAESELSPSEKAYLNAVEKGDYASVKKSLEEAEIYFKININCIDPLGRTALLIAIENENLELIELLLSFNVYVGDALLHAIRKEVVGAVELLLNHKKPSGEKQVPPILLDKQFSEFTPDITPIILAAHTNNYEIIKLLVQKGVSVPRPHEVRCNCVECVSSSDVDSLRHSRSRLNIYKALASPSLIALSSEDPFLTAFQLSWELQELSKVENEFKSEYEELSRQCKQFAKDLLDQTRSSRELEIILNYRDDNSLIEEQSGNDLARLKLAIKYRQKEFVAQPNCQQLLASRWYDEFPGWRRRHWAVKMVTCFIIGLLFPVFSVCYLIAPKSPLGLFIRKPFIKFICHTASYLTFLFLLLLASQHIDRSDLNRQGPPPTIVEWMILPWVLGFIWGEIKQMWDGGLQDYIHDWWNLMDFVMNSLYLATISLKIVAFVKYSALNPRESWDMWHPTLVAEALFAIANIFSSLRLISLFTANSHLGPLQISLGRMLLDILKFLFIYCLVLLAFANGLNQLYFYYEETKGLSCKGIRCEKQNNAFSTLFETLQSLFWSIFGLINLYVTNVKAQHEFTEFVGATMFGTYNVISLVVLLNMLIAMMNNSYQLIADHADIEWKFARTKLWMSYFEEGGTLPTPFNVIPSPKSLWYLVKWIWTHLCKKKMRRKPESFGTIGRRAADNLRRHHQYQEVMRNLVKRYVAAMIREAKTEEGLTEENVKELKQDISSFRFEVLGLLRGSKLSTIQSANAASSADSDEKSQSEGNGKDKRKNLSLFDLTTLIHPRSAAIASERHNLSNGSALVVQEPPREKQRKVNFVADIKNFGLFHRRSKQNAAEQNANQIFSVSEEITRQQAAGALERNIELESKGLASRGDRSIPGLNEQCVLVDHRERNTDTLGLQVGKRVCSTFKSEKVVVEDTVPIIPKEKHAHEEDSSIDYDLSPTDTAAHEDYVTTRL

[2] = target: Ras and Rab interactor 1/Tyrosine-protein kinase ABL1 (Homo sapiens, UniProt P00519+Q13671); type: functional;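 further: biochemical TR-FRET dose-response test measuring inhibition of binding between Rin1 and Abl proteins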
[3] = target: T2, Apoptotic protease-activating factor 1 (Homo sapiens, UniProt O14727); type: functional
T2 sequence (O14727 whole entry): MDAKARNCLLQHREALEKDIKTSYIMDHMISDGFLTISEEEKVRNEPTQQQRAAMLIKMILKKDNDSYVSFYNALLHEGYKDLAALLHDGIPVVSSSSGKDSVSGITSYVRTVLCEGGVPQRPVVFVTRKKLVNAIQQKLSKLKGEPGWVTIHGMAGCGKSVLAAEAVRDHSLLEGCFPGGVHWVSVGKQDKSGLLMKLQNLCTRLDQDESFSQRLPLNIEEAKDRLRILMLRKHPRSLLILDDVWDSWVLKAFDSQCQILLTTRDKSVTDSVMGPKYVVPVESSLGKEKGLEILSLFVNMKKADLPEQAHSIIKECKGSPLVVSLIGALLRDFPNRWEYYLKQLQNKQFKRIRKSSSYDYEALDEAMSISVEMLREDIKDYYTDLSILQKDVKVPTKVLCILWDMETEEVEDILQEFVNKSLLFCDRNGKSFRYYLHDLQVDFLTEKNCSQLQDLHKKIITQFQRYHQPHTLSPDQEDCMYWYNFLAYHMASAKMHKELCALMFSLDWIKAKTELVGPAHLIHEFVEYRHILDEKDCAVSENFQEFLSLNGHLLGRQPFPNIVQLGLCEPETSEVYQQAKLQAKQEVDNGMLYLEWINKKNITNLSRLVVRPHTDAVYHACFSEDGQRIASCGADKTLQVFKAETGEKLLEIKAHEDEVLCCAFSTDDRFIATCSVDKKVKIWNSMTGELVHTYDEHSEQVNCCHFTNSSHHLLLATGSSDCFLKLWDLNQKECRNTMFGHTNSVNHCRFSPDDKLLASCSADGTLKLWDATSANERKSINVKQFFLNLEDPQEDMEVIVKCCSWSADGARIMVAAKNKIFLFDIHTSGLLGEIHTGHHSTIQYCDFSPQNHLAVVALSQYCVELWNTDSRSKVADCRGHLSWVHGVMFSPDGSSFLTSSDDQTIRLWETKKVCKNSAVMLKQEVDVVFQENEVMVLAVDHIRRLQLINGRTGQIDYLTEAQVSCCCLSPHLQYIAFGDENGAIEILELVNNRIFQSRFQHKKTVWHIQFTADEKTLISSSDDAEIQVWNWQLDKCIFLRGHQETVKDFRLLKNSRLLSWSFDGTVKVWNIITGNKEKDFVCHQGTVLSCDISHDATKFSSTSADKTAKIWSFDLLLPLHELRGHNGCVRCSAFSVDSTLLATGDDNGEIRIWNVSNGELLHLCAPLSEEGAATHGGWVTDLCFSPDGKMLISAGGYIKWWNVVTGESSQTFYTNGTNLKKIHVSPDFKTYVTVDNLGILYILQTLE

[4] = target: T3, Long-chain-fatty-acid--AMP ligase FadD28 (Mycobacterium tuberculosis, UniProt P9WQ59); experiment: Fluorescence polarization aasay to screen for inhibitors that compete for the binding of FadD28 to a bisubstrate Measured in Biochemical System Using Plate Reader - 2147-01_Inhibitor_Dose_CherryPick_Activity.; type: functional, Mycobacterium tuberculosis H37Rv
T3 sequence (P9WQ59 whole entry): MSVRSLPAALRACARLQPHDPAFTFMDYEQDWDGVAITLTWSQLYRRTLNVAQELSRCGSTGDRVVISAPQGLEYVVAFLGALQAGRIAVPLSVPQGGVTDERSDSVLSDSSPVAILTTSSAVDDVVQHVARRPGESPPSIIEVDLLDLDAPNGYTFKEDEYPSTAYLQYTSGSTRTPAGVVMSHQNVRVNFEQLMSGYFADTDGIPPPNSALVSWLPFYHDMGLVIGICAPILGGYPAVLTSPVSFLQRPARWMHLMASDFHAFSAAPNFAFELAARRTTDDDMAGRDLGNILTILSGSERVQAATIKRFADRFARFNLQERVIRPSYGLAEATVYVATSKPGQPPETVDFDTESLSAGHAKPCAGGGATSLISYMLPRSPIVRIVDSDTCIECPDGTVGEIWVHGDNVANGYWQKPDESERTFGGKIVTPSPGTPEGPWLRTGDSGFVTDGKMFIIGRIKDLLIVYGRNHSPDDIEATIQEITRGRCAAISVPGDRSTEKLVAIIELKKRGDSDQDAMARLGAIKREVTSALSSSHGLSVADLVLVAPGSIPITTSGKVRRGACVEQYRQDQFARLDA

[5] = target: T4, Sentrin-specific protease 7 (Homo sapiens, UniProt Q9BQF6); type: functional;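 further: Luminescence-based dose-response confirmation of ultra-high-throughput screening hits, measuring inhibition of SENP7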
T4 sequence (Q9BQF6 whole entry): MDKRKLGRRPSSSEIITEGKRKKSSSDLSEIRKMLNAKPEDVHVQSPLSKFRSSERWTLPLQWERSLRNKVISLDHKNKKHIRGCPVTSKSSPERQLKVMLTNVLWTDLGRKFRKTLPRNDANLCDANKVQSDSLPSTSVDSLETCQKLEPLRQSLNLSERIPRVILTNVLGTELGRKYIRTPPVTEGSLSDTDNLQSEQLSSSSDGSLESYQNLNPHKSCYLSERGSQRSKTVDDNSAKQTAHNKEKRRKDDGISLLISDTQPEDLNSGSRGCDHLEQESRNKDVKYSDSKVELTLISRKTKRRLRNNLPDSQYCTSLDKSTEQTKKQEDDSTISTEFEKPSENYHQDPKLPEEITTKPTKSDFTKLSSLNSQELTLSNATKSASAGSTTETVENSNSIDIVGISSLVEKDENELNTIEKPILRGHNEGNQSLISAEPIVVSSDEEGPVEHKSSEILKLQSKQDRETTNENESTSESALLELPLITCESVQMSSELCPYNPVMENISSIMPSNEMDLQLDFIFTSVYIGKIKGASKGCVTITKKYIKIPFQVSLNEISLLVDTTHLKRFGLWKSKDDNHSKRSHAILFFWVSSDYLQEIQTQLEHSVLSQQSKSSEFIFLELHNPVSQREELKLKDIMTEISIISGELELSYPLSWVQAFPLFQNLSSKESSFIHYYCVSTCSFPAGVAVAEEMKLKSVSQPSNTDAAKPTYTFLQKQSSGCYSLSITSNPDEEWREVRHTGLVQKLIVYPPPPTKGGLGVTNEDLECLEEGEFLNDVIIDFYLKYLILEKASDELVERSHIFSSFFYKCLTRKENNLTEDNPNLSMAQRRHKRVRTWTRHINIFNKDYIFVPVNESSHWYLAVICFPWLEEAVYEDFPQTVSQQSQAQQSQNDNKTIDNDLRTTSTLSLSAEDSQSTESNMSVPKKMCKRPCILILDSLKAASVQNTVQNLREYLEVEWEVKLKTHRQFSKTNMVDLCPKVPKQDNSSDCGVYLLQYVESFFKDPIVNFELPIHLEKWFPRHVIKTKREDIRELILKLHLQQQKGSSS

[6] = target: T5, Sentrin-specific protease 6 (Homo sapiens, UniProt Q9GZR1); type: functional;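 further: Luminescence-based dose-response confirmatory assay of SENP6 inhibition, following up an ultra-high-throughput screen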
T5 sequence (Q9GZR1 whole entry): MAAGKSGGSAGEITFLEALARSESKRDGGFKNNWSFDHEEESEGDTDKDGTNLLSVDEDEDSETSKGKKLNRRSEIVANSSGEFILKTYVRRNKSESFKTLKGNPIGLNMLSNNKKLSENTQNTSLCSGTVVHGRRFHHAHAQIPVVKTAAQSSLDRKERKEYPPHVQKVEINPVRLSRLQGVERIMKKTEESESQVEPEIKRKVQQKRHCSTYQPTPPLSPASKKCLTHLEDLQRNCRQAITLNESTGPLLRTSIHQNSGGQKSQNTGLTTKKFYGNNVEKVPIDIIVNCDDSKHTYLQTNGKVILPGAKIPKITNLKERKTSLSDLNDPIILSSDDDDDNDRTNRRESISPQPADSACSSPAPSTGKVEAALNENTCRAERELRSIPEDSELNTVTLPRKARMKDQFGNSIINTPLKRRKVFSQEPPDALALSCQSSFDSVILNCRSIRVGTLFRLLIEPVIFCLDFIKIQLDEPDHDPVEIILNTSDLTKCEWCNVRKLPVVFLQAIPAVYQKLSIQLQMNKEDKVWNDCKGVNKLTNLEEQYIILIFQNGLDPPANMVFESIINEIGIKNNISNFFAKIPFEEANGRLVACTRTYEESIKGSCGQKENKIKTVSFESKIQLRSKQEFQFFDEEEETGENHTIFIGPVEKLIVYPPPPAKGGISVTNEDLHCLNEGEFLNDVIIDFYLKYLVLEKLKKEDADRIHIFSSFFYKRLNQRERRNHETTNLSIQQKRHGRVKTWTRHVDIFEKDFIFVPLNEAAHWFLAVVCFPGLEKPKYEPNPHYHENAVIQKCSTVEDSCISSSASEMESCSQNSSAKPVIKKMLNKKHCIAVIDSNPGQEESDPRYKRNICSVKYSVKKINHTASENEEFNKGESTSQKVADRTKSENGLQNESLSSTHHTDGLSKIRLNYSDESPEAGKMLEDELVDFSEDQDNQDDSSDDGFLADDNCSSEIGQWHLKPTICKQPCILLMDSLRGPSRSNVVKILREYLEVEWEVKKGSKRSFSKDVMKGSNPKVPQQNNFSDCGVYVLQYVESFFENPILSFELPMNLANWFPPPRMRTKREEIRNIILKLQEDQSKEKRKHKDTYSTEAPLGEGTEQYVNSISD

[7] = target: T6, Sentrin-specific protease 8 (Homo sapiens, UniProt Q96LD8); type: functional;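 further: luminescence read-out of SENP8 inhibition, dose-response confirmation following an ultra-high-throughput screen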
T6 sequence (Q96LD8 whole entry): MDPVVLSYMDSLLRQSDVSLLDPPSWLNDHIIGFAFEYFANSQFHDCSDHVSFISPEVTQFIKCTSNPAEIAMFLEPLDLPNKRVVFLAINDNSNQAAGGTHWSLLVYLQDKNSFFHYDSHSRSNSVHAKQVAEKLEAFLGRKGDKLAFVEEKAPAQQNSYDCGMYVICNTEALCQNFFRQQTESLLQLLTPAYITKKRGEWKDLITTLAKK

[8] = Luminescence Cell-Based Dose Retest to Confirm Inhibitors of Cancer Stem Cells. [Related pubchem assays (depositor defined):AID2717, AID2721]; type: functional; details: Homo sapiens

Ras and Rab interactor 1/Tyrosine-protein kinase ABL1, sequence (P00519 whole entry): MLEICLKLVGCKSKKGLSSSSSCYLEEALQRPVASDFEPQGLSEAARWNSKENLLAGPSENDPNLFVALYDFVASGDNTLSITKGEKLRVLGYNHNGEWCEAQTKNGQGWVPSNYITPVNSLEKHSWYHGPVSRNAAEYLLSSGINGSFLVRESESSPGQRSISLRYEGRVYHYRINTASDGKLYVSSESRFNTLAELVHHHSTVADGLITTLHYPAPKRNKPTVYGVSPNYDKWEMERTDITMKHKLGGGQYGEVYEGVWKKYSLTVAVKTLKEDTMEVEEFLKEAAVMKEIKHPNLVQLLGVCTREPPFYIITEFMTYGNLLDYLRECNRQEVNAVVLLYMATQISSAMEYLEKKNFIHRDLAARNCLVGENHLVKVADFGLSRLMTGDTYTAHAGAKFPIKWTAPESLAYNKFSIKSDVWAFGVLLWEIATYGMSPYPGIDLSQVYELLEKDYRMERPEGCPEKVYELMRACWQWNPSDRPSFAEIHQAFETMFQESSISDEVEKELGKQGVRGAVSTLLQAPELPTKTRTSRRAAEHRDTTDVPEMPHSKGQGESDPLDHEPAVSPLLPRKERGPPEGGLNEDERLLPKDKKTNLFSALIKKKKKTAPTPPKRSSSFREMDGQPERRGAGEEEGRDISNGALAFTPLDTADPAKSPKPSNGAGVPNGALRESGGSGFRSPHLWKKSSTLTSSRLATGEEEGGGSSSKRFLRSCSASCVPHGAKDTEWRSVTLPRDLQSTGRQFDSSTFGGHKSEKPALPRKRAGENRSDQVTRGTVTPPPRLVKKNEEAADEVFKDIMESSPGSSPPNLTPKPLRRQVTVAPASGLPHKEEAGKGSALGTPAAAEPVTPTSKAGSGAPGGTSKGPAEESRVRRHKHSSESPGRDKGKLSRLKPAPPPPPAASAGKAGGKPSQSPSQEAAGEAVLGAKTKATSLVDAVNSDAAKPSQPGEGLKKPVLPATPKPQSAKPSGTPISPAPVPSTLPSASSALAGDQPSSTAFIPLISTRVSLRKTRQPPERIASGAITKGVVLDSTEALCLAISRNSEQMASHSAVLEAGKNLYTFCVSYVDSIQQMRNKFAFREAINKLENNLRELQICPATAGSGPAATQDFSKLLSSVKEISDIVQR
Ras and Rab interactor 1/Tyrosine-protein kinase ABL1, sequence (Q13671 whole entry): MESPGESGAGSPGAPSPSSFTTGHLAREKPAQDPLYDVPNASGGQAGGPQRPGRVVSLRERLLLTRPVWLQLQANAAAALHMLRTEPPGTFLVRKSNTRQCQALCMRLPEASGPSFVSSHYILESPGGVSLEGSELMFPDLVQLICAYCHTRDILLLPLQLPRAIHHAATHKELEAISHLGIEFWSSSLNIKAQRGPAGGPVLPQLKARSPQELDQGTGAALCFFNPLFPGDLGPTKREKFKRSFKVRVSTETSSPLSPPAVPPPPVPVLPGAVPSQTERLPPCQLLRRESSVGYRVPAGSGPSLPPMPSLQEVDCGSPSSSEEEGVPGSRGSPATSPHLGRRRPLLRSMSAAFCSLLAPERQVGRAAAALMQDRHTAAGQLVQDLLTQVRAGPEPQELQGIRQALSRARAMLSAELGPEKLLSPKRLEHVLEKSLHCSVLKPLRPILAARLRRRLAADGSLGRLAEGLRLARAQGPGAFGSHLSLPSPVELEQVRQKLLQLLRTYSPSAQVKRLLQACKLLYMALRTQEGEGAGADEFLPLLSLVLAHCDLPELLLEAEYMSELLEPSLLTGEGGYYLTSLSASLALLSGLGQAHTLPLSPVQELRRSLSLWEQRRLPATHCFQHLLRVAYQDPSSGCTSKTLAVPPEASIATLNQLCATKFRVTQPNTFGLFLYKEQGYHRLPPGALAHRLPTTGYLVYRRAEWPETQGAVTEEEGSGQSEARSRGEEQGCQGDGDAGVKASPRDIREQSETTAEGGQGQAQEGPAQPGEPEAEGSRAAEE

CN(C)C(CNC(=O)Cc1cccc(C(F)(F)F)c1)c1ccco1 (centres undefined)
EC50 [1]: 0.335 µM (active)

CC1CCN(CCCNS(=O)(=O)c2cc(Br)cc3c2N(C(=O)C2CC2)CC3)CC1
EC50 [1]: 0.299 µM (active)

CN(C(=O)c1ccc(NC(=O)Cc2cccc(NC(=O)C3CCN(C(=O)C4CCCC4)CC3)c2)cc1)C1CC1
IC50 [2]: 21.2 µM (inactive)

CC(C)(C)C(=O)[C@@H]1[C@@H]2C(=O)N(C3CCCCC3)C(=O)[C@@H]2[C@H]2c3ccccc3C=CN12
IC50 [3]: 10.5 µM (active)

Cc1nc(N/N=C/c2ccc(O)cc2O)cc(N2CCOCC2)n1
IC50 [2]: > 2.72 µM (active)

C/C(=N\Nc1ccc(Cl)c(C(=O)O)c1)c1ccc(Br)s1
AC50 [4]: > 100 µM (inactive)

Nc1nc(O)cc(NC2CCCC2)n1
IC50 [2]: 12.4 µM (inactive)

O=C(CCn1c2c(c3ccccc31)CCCC2)NNC(=O)c1ccc([N+](=O)[O-])cc1
IC50 [3]: 1.8 µM (active)

CCOC(=O)C1(CCc2ccccc2)CCN(Cc2ccc(OC)cc2)CC1
EC50 [1]: 0.267 µM (active)

O=C(CC(=O)Nc1ccccc1[N+](=O)[O-])Nc1ccccc1[N+](=O)[O-]
AC50 [4]: 32 µM (inactive)

COc1ccc(CCC(=O)Nc2c(-c3ccc(N(C)C)cc3)n[nH]c2O)cc1
IC50 [2]: > 73.5 µM (inactive)

CCCN(CC(=O)Nc1ccccc1C)C(=O)c1sc2ccccc2c1Cl
IC50 [3]: > 100 µM (inactive)

COc1cccc(NC(=O)Nc2ccc3c(c2)CCC3)c1
IC50 [5]: 4.28 µM (active) | IC50 [6]: > 100 µM (inactive) | IC50 [7]: > 100 µM (inactive)

COc1cc2ccccc2cc1C(=O)Nc1ccccc1Cl
AC50 [8]: 4.58 µM (active) | IC50 [5]: 8.41 µM (active) | IC50 [6]: 10.2 µM (active) | IC50 [7]: 17.2 µM (active)

— ChEMBL document CHEMBL1201862, “PubChem BioAssay data set” (2004)
